Test results from ChEMBL document CHEMBL5108086, “New β-carboline derivatives containing imidazolium as potential VEGFR2 inhibitors: synthesis, X-ray structure, antiproliferative evaluations, and molecular modeling” (RSC Med Chem, 2022).

Tested on: not listed separately
Assay: Antitumor activity against mouse Lewis lung carcinoma cells implanted in C57BL/6 mouse assessed as tumor inhibition rate at 12.5 mg/kg, ip administered once daily for 7 days and measured on 21st day relative to control
Assay type: functional
Details: 504 h, time 21 day, read-out: TGI

Compound	inhibition in vivo at 12.5 mg/kg [%]
Fc1c(F)c(F)c(Cn2c3ccccc3c3ccn4c[n+](-c5ccc(C(F)(F)F)cc5)cc4c32)c(F)c1F.[Cl-]	33.1

Tested on: MCF7
Assay: cells
Details: Homo sapiens, MCF7, 72 h
Description: Antiproliferative activity against human MCF7 cells assessed as inhibition of cell proliferation incubated for 72 hrs by MTT assay

Compound	IC50 [µM]
Fc1ccc(Cn2c3ccccc3c3ccn4c[n+](-c5ccccc5)cc4c32)cc1	9.3
Cn1c2ccccc2c2ccn3c[n+](-c4ccc(C(F)(F)F)cc4)cc3c21	19.7
Fc1c(F)c(F)c(Cn2c3ccccc3c3ccn4c[n+](-c5ccc(C(F)(F)F)cc5)cc4c32)c(F)c1F.[Cl-]	4.5
FC(F)(F)c1ccc(-[n+]2cc3c4c(ccn3c2)c2ccccc2n4Cc2cccc(Cl)c2)cc1	9.2
CN(C)c1ccc(-[n+]2cc3c4c(ccn3c2)c2ccccc2n4C)cc1.[Cl-]	8.9
CCCCn1c2ccccc2c2ccn3c[n+](-c4ccc(C(F)(F)F)cc4)cc3c21	10.8
Cn1c2ccccc2c2ccn3c[n+](-c4ccc(Cl)cc4Cl)cc3c21	31.2

Further molecules by falling IC50, results first:

IC50 [µM]	Compound
35.1	Fc1c(F)c(F)c(Cn2c3ccccc3c3ccn4c[n+](-c5ccccc5)cc4c32)c(F)c1F
17.5	Cn1c2ccccc2c2ccn3c[n+](-c4ccccc4)cc3c21
16.8	FC(F)(F)c1ccc(-[n+]2cc3c4c(ccn3c2)c2ccccc2n4Cc2ccccc2)cc1
16.5	Oc1ccc(-[n+]2cc3c4c(ccn3c2)c2ccccc2n4CCCc2ccccc2)cc1
7.9	Clc1cccc(Cn2c3ccccc3c3ccn4c[n+](-c5ccccc5)cc4c32)c1
7.7	c1ccc(Cn2c3ccccc3c3ccn4c[n+](-c5ccccc5)cc4c32)cc1
3.2	c1ccc(CCCn2c3ccccc3c3ccn4c[n+](-c5ccc6ccccc6c5)cc4c32)cc1
3.1	Clc1ccc(-[n+]2cc3c4c(ccn3c2)c2ccccc2n4CCCc2ccccc2)c(Cl)c1

Tested on: CT26
Assay: cells
Details: Mus musculus, CT26, 72 h
Description: Antiproliferative activity against mouse CT26 cells assessed as inhibition of cell proliferation incubated for 72 hrs by MTT assay

Compound	IC50 [µM]
Fc1ccc(Cn2c3ccccc3c3ccn4c[n+](-c5ccccc5)cc4c32)cc1	58.7
Cn1c2ccccc2c2ccn3c[n+](-c4ccc(C(F)(F)F)cc4)cc3c21	15.6
Fc1c(F)c(F)c(Cn2c3ccccc3c3ccn4c[n+](-c5ccc(C(F)(F)F)cc5)cc4c32)c(F)c1F.[Cl-]	6.2
FC(F)(F)c1ccc(-[n+]2cc3c4c(ccn3c2)c2ccccc2n4Cc2cccc(Cl)c2)cc1	21.2
CN(C)c1ccc(-[n+]2cc3c4c(ccn3c2)c2ccccc2n4C)cc1.[Cl-]	5.9
CCCCn1c2ccccc2c2ccn3c[n+](-c4ccc(C(F)(F)F)cc4)cc3c21	9.6
Cn1c2ccccc2c2ccn3c[n+](-c4ccc(Cl)cc4Cl)cc3c21	17.2

Continued, values first:

IC50 [µM]	Compound
20.1	Fc1c(F)c(F)c(Cn2c3ccccc3c3ccn4c[n+](-c5ccccc5)cc4c32)c(F)c1F
7.8	Cn1c2ccccc2c2ccn3c[n+](-c4ccccc4)cc3c21
3.5	FC(F)(F)c1ccc(-[n+]2cc3c4c(ccn3c2)c2ccccc2n4Cc2ccccc2)cc1
6.4	Oc1ccc(-[n+]2cc3c4c(ccn3c2)c2ccccc2n4CCCc2ccccc2)cc1
28.3	Clc1cccc(Cn2c3ccccc3c3ccn4c[n+](-c5ccccc5)cc4c32)c1
30.7	c1ccc(Cn2c3ccccc3c3ccn4c[n+](-c5ccccc5)cc4c32)cc1
5.4	c1ccc(CCCn2c3ccccc3c3ccn4c[n+](-c5ccc6ccccc6c5)cc4c32)cc1
12.4	Clc1ccc(-[n+]2cc3c4c(ccn3c2)c2ccccc2n4CCCc2ccccc2)c(Cl)c1

Tested on: not listed separately
Assay: Acute toxicity in Kunming mouse assessed as animal death measured after 14 days
Details: in vivo, 336 h, time 14 day

Compound	Activity
Fc1c(F)c(F)c(Cn2c3ccccc3c3ccn4c[n+](-c5ccc(C(F)(F)F)cc5)cc4c32)c(F)c1F.[Cl-]	Non-Toxic
CN(C)c1ccc(-[n+]2cc3c4c(ccn3c2)c2ccccc2n4C)cc1.[Cl-]	Non-Toxic

Tested on: Bel-7402
Assay: cells
Details: Homo sapiens, Bel-7402, 72 h
Description: Antiproliferative activity against human Bel-7402 cells assessed as inhibition of cell proliferation incubated for 72 hrs by MTT assay

Compound	IC50 [µM]
Fc1ccc(Cn2c3ccccc3c3ccn4c[n+](-c5ccccc5)cc4c32)cc1	7.7
Cn1c2ccccc2c2ccn3c[n+](-c4ccc(C(F)(F)F)cc4)cc3c21	8.3
Fc1c(F)c(F)c(Cn2c3ccccc3c3ccn4c[n+](-c5ccc(C(F)(F)F)cc5)cc4c32)c(F)c1F.[Cl-]	8.8
FC(F)(F)c1ccc(-[n+]2cc3c4c(ccn3c2)c2ccccc2n4Cc2cccc(Cl)c2)cc1	4.2
CN(C)c1ccc(-[n+]2cc3c4c(ccn3c2)c2ccccc2n4C)cc1.[Cl-]	6.7
CCCCn1c2ccccc2c2ccn3c[n+](-c4ccc(C(F)(F)F)cc4)cc3c21	8.7
Cn1c2ccccc2c2ccn3c[n+](-c4ccc(Cl)cc4Cl)cc3c21	24.8

Next, values leading:

IC50 [µM]	Compound
3.9	Fc1c(F)c(F)c(Cn2c3ccccc3c3ccn4c[n+](-c5ccccc5)cc4c32)c(F)c1F
19.6	Cn1c2ccccc2c2ccn3c[n+](-c4ccccc4)cc3c21
4.9	FC(F)(F)c1ccc(-[n+]2cc3c4c(ccn3c2)c2ccccc2n4Cc2ccccc2)cc1
5.7	Oc1ccc(-[n+]2cc3c4c(ccn3c2)c2ccccc2n4CCCc2ccccc2)cc1
5.6	Clc1cccc(Cn2c3ccccc3c3ccn4c[n+](-c5ccccc5)cc4c32)c1
8.6	c1ccc(Cn2c3ccccc3c3ccn4c[n+](-c5ccccc5)cc4c32)cc1
6.5	c1ccc(CCCn2c3ccccc3c3ccn4c[n+](-c5ccc6ccccc6c5)cc4c32)cc1
1.9	Clc1ccc(-[n+]2cc3c4c(ccn3c2)c2ccccc2n4CCCc2ccccc2)c(Cl)c1

Tested on: BGC-823
Assay: cells
Details: Homo sapiens, BGC-823, 72 h
Description: Antiproliferative activity against human BGC-823 cells assessed as inhibition of cell proliferation incubated for 72 hrs by MTT assay

Compound	IC50 [µM]
Fc1ccc(Cn2c3ccccc3c3ccn4c[n+](-c5ccccc5)cc4c32)cc1	1.7
Cn1c2ccccc2c2ccn3c[n+](-c4ccc(C(F)(F)F)cc4)cc3c21	8.7
Fc1c(F)c(F)c(Cn2c3ccccc3c3ccn4c[n+](-c5ccc(C(F)(F)F)cc5)cc4c32)c(F)c1F.[Cl-]	7.9
FC(F)(F)c1ccc(-[n+]2cc3c4c(ccn3c2)c2ccccc2n4Cc2cccc(Cl)c2)cc1	15.6
CN(C)c1ccc(-[n+]2cc3c4c(ccn3c2)c2ccccc2n4C)cc1.[Cl-]	8.4
CCCCn1c2ccccc2c2ccn3c[n+](-c4ccc(C(F)(F)F)cc4)cc3c21	17.9
Cn1c2ccccc2c2ccn3c[n+](-c4ccc(Cl)cc4Cl)cc3c21	39.3

Other lines, results leading:

IC50 [µM]	Compound
2.5	Fc1c(F)c(F)c(Cn2c3ccccc3c3ccn4c[n+](-c5ccccc5)cc4c32)c(F)c1F
11.7	Cn1c2ccccc2c2ccn3c[n+](-c4ccccc4)cc3c21
8.7	FC(F)(F)c1ccc(-[n+]2cc3c4c(ccn3c2)c2ccccc2n4Cc2ccccc2)cc1
5.1	Oc1ccc(-[n+]2cc3c4c(ccn3c2)c2ccccc2n4CCCc2ccccc2)cc1
8.9	Clc1cccc(Cn2c3ccccc3c3ccn4c[n+](-c5ccccc5)cc4c32)c1
19.4	c1ccc(Cn2c3ccccc3c3ccn4c[n+](-c5ccccc5)cc4c32)cc1
4.5	c1ccc(CCCn2c3ccccc3c3ccn4c[n+](-c5ccc6ccccc6c5)cc4c32)cc1
5.6	Clc1ccc(-[n+]2cc3c4c(ccn3c2)c2ccccc2n4CCCc2ccccc2)c(Cl)c1

Tested on: A549
Assay: cells
Details: Homo sapiens, A549, 72 h
Description: Antiproliferative activity against human A549 cells assessed as inhibition of cell proliferation incubated for 72 hrs by MTT assay

Compound	IC50 [µM]
Fc1ccc(Cn2c3ccccc3c3ccn4c[n+](-c5ccccc5)cc4c32)cc1	14.7
Cn1c2ccccc2c2ccn3c[n+](-c4ccc(C(F)(F)F)cc4)cc3c21	6.9
Fc1c(F)c(F)c(Cn2c3ccccc3c3ccn4c[n+](-c5ccc(C(F)(F)F)cc5)cc4c32)c(F)c1F.[Cl-]	8.5
FC(F)(F)c1ccc(-[n+]2cc3c4c(ccn3c2)c2ccccc2n4Cc2cccc(Cl)c2)cc1	2.3
CN(C)c1ccc(-[n+]2cc3c4c(ccn3c2)c2ccccc2n4C)cc1.[Cl-]	5.3
CCCCn1c2ccccc2c2ccn3c[n+](-c4ccc(C(F)(F)F)cc4)cc3c21	35.7
Cn1c2ccccc2c2ccn3c[n+](-c4ccc(Cl)cc4Cl)cc3c21	8.5

Second part, the molecule after the results:

IC50 [µM]	Compound
6.3	Fc1c(F)c(F)c(Cn2c3ccccc3c3ccn4c[n+](-c5ccccc5)cc4c32)c(F)c1F
19.9	Cn1c2ccccc2c2ccn3c[n+](-c4ccccc4)cc3c21
12.2	FC(F)(F)c1ccc(-[n+]2cc3c4c(ccn3c2)c2ccccc2n4Cc2ccccc2)cc1
26.3	Oc1ccc(-[n+]2cc3c4c(ccn3c2)c2ccccc2n4CCCc2ccccc2)cc1
17.8	Clc1cccc(Cn2c3ccccc3c3ccn4c[n+](-c5ccccc5)cc4c32)c1
19.3	c1ccc(Cn2c3ccccc3c3ccn4c[n+](-c5ccccc5)cc4c32)cc1
12.7	c1ccc(CCCn2c3ccccc3c3ccn4c[n+](-c5ccc6ccccc6c5)cc4c32)cc1
6.2	Clc1ccc(-[n+]2cc3c4c(ccn3c2)c2ccccc2n4CCCc2ccccc2)c(Cl)c1

Tested on: not listed separately
Assay: Cytotoxicity against human L02 cells assessed as inhibition of cell proliferation incubated for 72 hrs by MTT assay
Assay type: toxicity, cell-based
Details: not given

Compound	IC50 at 72 h [µM]
Fc1ccc(Cn2c3ccccc3c3ccn4c[n+](-c5ccccc5)cc4c32)cc1	42.2
Fc1c(F)c(F)c(Cn2c3ccccc3c3ccn4c[n+](-c5ccc(C(F)(F)F)cc5)cc4c32)c(F)c1F.[Cl-]	81.4
FC(F)(F)c1ccc(-[n+]2cc3c4c(ccn3c2)c2ccccc2n4Cc2cccc(Cl)c2)cc1	41.8
Clc1ccc(-[n+]2cc3c4c(ccn3c2)c2ccccc2n4CCCc2ccccc2)c(Cl)c1	52.4
Clc1cccc(Cn2c3ccccc3c3ccn4c[n+](-c5ccccc5)cc4c32)c1	56.1
CN(C)c1ccc(-[n+]2cc3c4c(ccn3c2)c2ccccc2n4C)cc1.[Cl-]	53.6
FC(F)(F)c1ccc(-[n+]2cc3c4c(ccn3c2)c2ccccc2n4Cc2ccccc2)cc1	> 100

Tested on: Sarcoma-180
Assay: Antitumor activity against mouse Sarcoma-180 cells implanted in Kunming mouse assessed as tumor inhibition rate at 7.5 mg/kg, ip administered once daily for 7 days and measured on 21st day relative to control
Assay type: functional
Details: Sarcoma-180, 504 h, time 21 day, read-out: TGI

Compound	inhibition in vivo at 7.5 mg/kg [%]
CN(C)c1ccc(-[n+]2cc3c4c(ccn3c2)c2ccccc2n4C)cc1.[Cl-]	32.7

Tested on: not listed separately
Assay: Acute toxicity in Kunming mouse assessed as median lethal dose measured after 14 days
Details: in vivo, time 14 day

Compound	LD50 at 336 h [mg/kg]
Fc1c(F)c(F)c(Cn2c3ccccc3c3ccn4c[n+](-c5ccc(C(F)(F)F)cc5)cc4c32)c(F)c1F.[Cl-]	63
CN(C)c1ccc(-[n+]2cc3c4c(ccn3c2)c2ccccc2n4C)cc1.[Cl-]	37.5

Tested on: Sarcoma-180
Assay: Antitumor activity against mouse Sarcoma-180 cells implanted in Kunming mouse assessed as tumor inhibition rate at 12.5 mg/kg, ip administered once daily for 7 days and measured on 21st day relative to control
Assay type: functional
Details: Sarcoma-180, 504 h, time 21 day, read-out: TGI

Compound	inhibition in vivo at 12.5 mg/kg [%]
Fc1c(F)c(F)c(Cn2c3ccccc3c3ccn4c[n+](-c5ccc(C(F)(F)F)cc5)cc4c32)c(F)c1F.[Cl-]	40.5
